Source: patent publication US8420592B2, “Methods of treatment using single doses of oritavancin” (The Medicines Company, priority 2008, dated 2013)
In brackets after ≈: the same amount, converted by molar mass.

Experiments:
[1] = tested on: MRSA; experiment: MIC by broth microdilution with 0.002% polysorbate-80, baseline isolates of MITT population; format: cell-based; settings: Staphylococcus aureus; MRSA subset
Protocol: (§1) Blood and infection site cultures were obtained within three days of enrollment (often done at the time of enrollment). End-of-therapy, TOC, and late follow-up (or at early relapse) cultures were obtained from the infection site if clinically indicated. […] Specimens were cultured and pathogens were identified at each investigative site's certified laboratory. All isolated gram-positive pathogen(s) that were obtained from the infection site at baseline/randomization and up to and including the TOC time point were subcultured and sent to a central laboratory (Covance Clinical Laboratories, Indianapolis, Ind.) for confirmatory identification and susceptibility testing. In cases of discrepancy between the local and the central laboratory, central laboratory results were used.
(§2) At least one gram-positive organism was isolated from the infection site at baseline in 209 patients (69.2%) in the ITT population. The most commonly isolated pathogen was S. aureus, which was isolated from 87.6% (183/209) of MITT patients. MRSA was isolated in 49% (103/209) of MITT patients. The other three most common pathogens identified in the MITT population were Streptococcus pyogenes (5.7%, 12/209), Streptococcus agalactiae (3.8%, 8/209) and Enterococcus faecalis (3.8%, 8/209). The range of oritavancin minimum inhibitory concentrations (MICs) for S. aureus in the MITT population, as assessed using broth microdilution with 0.002% polysorbate-80, was 0.008 to 0.5 μg/mL.

[2] = tested on: MSSA; experiment: as above; format: cell-based; settings: Staphylococcus aureus; MSSA subset
Protocol: as §1, §2

[3] = tested on: S. aureus; experiment: as above; format: cell-based; settings: Staphylococcus aureus; all S. aureus
Protocol: as §1, §2

[4] = tested on: MRSA (S. aureus NRS123 and clinical MRSA strains); experiment: Neutropenic-mouse thigh infection model; format: in vivo, Staphylococcus aureus; settings: for Mean Log CFU/thigh from baseline: 72 h
Protocol: (§3) Methods: Thigh infection was established for 14 clinical SA isolates (3 MSSA and 11 MRSA; MICs 0.0015 to 2 μg/mL) in neutropenic CD-1 mice (n=3/group) with 5×10^5 colony forming units (CFU) of cells. Single intravenous doses of ORI (0.5 to 40 mg/kg) were tested against one MSSA and one MRSA strain. […] Both thighs were harvested and CFU counts were evaluated after 24 h (single doses) or 72 h (HEQ doses) treatment.
(§4) In vivo studies: All studies were performed in accordance with protocols that were approved by the Institutional Animal Care and Use Committee. Thigh infection was established for 14 clinical S. aureus isolates in neutropenic CD-1 mice (19-21 g, n=3/group) with 5×10^5 colony forming units (CFU) of cells in both thighs. In the single dose-response study, the number of bacteria/thigh was monitored 24 h post-infection (PI). In the human equivalent (HEQ) dose-ranging study, the bacterial titer was determined in mouse thighs at 2, 4, 8, 12, 24, 48 and 72 h PI. Thighs were serially diluted and plated on Baird-Parker agar plates to determine the bacterial titer. The limit of detection was 1.69 Log10 CFU/thigh. Bacterial titer decreases were calculated (compared to starting inoculum) in thighs at 72 h PI for each HEQ dose regimen of ORI.
(§5) Antibiotherapy: 1) In the single dose response study, mice were treated intravenously (IV) with ORI at doses ranging from 0.4 to 40 mg/kg at lh PI. 2) In the HEQ dose-ranging study, starting at 1 h PI, the mice received a multiple IV dose regimen to simulate human drug concentration profile. […]
(§6) Data analysis: The inhibitiory sigmoid Emax model was used to calculate the ED50 of oritavancin (dose resulting in 50% of the maximal bacterial killing) ±95% confidence interval by using the GraphPad Prism software. The statistical calculations to compare bacterial titer from each experimental group were performed according to the Mann-Whitney U test by using StatsDirect software. p-values below 0.05 were considered significant.

[5] = tested on: MSSA (S. aureus ATCC13709 and clinical MSSA strains); experiment: Neutropenic-mouse thigh infection model; format: in vivo, Staphylococcus aureus; settings: for Log kill / Mean Log CFU/thigh from baseline: 72 h; for Log kill: S. aureus ATCC13709; for Mean Log CFU/thigh from baseline: MSSA (3 strains)
Protocol: as §3, §4, §5, §6

[6] = tested on: MSSA or MRSA strains; experiment: Neutropenic-mouse thigh infection model, MSSA or MRSA strains, 72 h post-infection; format: in vivo, Staphylococcus aureus; settings: independently of their MIC
Protocol: as §3, §4
Antibiotherapy: 1) In the single dose response study, mice were treated intravenously (IV) with ORI at doses ranging from 0.4 to 40 mg/kg at lh PI. […]

CN[C@H](CC(C)C)C(=O)N[C@H]1C(=O)N[C@@H](CC(N)=O)C(=O)N[C@H]2C(=O)N[C@H]3C(=O)N[C@H](C(=O)N[C@H](C(=O)O)c4cc(O)cc(O)c4-c4cc3ccc4O)[C@H](O[C@H]3C[C@](C)(N)[C@@H](O)[C@H](C)O3)c3ccc(c(Cl)c3)Oc3cc2cc(c3O[C@@H]2O[C@H](CO)[C@@H](O)[C@H](O)[C@H]2O[C@H]2C[C@](C)(NCc3ccc(-c4ccc(Cl)cc4)cc3)[C@@H](O)[C@H](C)O2)Oc2ccc(cc2Cl)[C@H]1O [Oritavancin, N-(4-(4-chlorophenyl)benzyl)A82846B]
MIC90 [1]: 0.12 µg/mL (≈ 0.0669 µM)
MIC90 [2]: 0.12 µg/mL (≈ 0.0669 µM)
MIC90 [3]: 0.12 µg/mL (≈ 0.0669 µM)
Mean Log CFU/thigh from baseline ([4]; MRSA (3 strains), HEQ dose 100 mg × 3 days): 0.8 Log CFU/thigh
Mean Log CFU/thigh from baseline ([4]; MRSA (3 strains), HEQ dose 400 mg × 3 days): −2.8 Log CFU/thigh
Mean Log CFU/thigh from baseline ([4]; MRSA (11 strains), HEQ dose 200 mg × 3 days): −0.9 Log CFU/thigh
Mean Log CFU/thigh from baseline ([4]; MRSA (11 strains), HEQ dose 1200 mg × 1 day): −2.8 Log CFU/thigh
ED50 ([4]; Staphylococcus aureus, single IV dose 1 h post-infection, 24 h readout, NRS123 (MRSA), neutropenic CD-1 mice, 95% CI in brackets, read-out: ED50 (dose resulting in 50% of the maximal killing)): 2.4 mg/kg
ED50 (dose resulting in 50% of the maximal killing) ([4]; single IV dose 1 h post-infection, 24 h readout, NRS123 (MRSA), neutropenic CD-1 mice, 95% CI in brackets): 2.4 (0.8-7.3) mg/kg
Log kill ([5]; HEQ dose 200 mg): > 2 Log
Log kill ([5]; HEQ dose 400 mg): > 2 Log
Log kill ([5]; HEQ dose 1200 mg): > 2 Log
Mean Log CFU/thigh from baseline ([5]; HEQ dose 100 mg × 3 days): 1.5 Log CFU/thigh
Mean Log CFU/thigh from baseline ([5]; HEQ dose 200 mg × 3 days): −0.1 Log CFU/thigh
Mean Log CFU/thigh from baseline ([5]; HEQ dose 400 mg × 3 days): −1.6 Log CFU/thigh
Mean Log CFU/thigh from baseline ([5]; HEQ dose 1200 mg × 1 day): −2.7 Log CFU/thigh
ED50 ([5]; Staphylococcus aureus, single IV dose 1 h post-infection, 24 h readout, S. aureus ATCC13709 (MSSA), neutropenic CD-1 mice, 95% CI in brackets, read-out: ED50 (dose resulting in 50% of the maximal killing)): 5.8 mg/kg
ED50 (dose resulting in 50% of the maximal killing) ([5]; single IV dose 1 h post-infection, 24 h readout, S. aureus ATCC13709 (MSSA), neutropenic CD-1 mice, 95% CI in brackets): 5.8 (3.3-10) mg/kg
Efficacy against MSSA or MRSA strains [6]: active against all tested strains
